# Tests used:
# [1] = half-life for CO release in sheep blood using an oximeter; format: in vitro ADME; conditions: 632.1 μg/mL
# Protocol: The stability of compound 4b was determined by measuring the release of CO in vitro in 50 mM Hepes buffer (pH 7.4) using a RCP-equipped GC. Compound 4b concentration was 50 μM. […] The half-life for CO release was also measured in sheep blood using an oximeter. A concentration of 632.1 μg/mL of compound 4b was used.
# The half-life for CO release was also measured in sheep blood using an oximeter. […] Compound 5b released 0.12 molar equivalents of CO in 3 hours.
# [2] = test system: APAP-induced acute liver failure (ALF) model; assay: APAP-induced acute liver failure (ALF) model, sublethal (300 mg/kg APAP i.p.); format: in vivo, C57Bl/6 male mice; conditions: for ALT levels reduced relative to untreated control animals: +5 h after APAP (300 mg/kg), ALT at 22 hours
# Protocol: Compound 3b was studied in a sublethal model for acetaminophen (APAP)-induced Liver Injury.
# ALF was induced in C57Bl/6 male mice with a single dose of acetaminophen (300 mg/kg) by i.p. injection. […] Serum alanine aminotransferase (ALT) was measured 22 h after APAP injection (n=5 mice for each group). […] ALF was induced in C57Bl/6 male mice with a single dose of acetaminophen (300 mg/kg) by i.p. injection. […] Twenty-two hours after APAP injection serum ALT was measured (indicated in FIG. 11A), centrilobular sections of mouse livers were cut and stained with hematoxylin and eosin, and the percentage of liver necrosis was determined. The data indicates a dose-dependent reduction of ALT levels of 9% to 83% relative to APAP control, and a dose-dependent reduction of necrosis of 0% to 56% relative to APAP control.
# ALF was induced in C57Bl/6 male mice with a single dose of acetaminophen (300 mg/kg) by i.p. injection. […] Alanine aminotransferase (ALT) was measured 22 h after APAP injection (n=4 or n=5 mice for each group).
# ALF was induced in C57Bl/6 male mice with a single dose of acetaminophen (300 mg/kg) by i.p. injection. […] Twenty-two hours after APAP injection, serum ALT was measured (indicated in FIGS. 12A-12B), centrilobular sections of mouse livers were cut and stained with hematoxylin and eosin, and the percentage of liver necrosis was determined.
# ALF was induced in C57Bl/6 male mice with a single dose of acetaminophen (300 mg/kg) by i.p. injection.
# FIG. 14 depicts the effect of late treatment with Compound 3b on serum ALT in ALF model. ALF was induced in C57Bl/6 male mice with a single dose of acetaminophen (300 mg/kg) by i.p. injection. At sixteen hours after APAP injection, the animals were treated with different doses of Compound 3b (0.3, 3, 30 or 60 mg/kg). Alanine aminotransferase (ALT) was measured 22 h after APAP injection (n=4 or n=5 mice for each group).
# ALF was induced in C57Bl/6 male mice with a single dose of acetaminophen (300 mg/kg) by i.p. injection. […] Experiments 1 and 2 represent two independent experiments. Alanine aminotransferase (ALT) was measured 22 h after APAP injection (n=4 or n=5 mice for each group). The ALT levels and the respective percentage of ALT increase, relative to the increase observed in mice injected with APAP alone, are presented in Table 7.
# ALF was induced in C57Bl/6 male mice with a single dose of acetaminophen (300 mg/kg) by i.p. injection. […] Twenty-two hours after APAP injection, serum ALT was measured and centrilobular sections of mouse livers were cut and stained with hematoxylin and eosin.
# [3] = test system: lethal APAP liver failure model; assay: lethal APAP liver failure model (500 mg/kg APAP i.p.), survival; conditions: 2×300 mg/kg, same schedules; data not shown
# [4] = test system: murine partial hepatectomy model; conditions: from Yang et al., Crit. Care (2009); cited from earlier work
# [5] = NAC 2 × 300 mg/kg at 1 h and 3 h post APAP, serum 22 h
smiles,measurement,setting,value
"O=C(O)C1([N+]#[C][Mo-6]([C]#[O+])([C]#[O+])([C]#[O+])([C]#[N+]C2(C(=O)O)CC2)[C]#[N+]C2(C(=O)O)CC2)CC1 [Compound 5b, tricarbonyl[tris(isocyanocyclopropylcarboxylic acid)]Mo(0)]",CO released in sheep blood in 3 hours,[1],0.12 molar equivalents of CO
same,ALT levels reduced relative to untreated control animals,[2]; 120 mg/kg i.p. at +3 h,70%
"O=C([O-])CC([N+]#[C][Mo-6]([C]#[O+])([C]#[O+])([C]#[O+])([C]#[N+]C(CC(=O)[O-])C(=O)[O-])[C]#[N+]C(CC(=O)[O-])C(=O)[O-])C(=O)[O-].[Li+].[Li+].[Li+].[Li+].[Li+].[Li+] (centres unmarked) [Compound 4b, tricarbonyl[tris(lithium 2-isocyanosuccinate)]Mo(0)]",ALT levels reduced relative to untreated control animals,[2]; 30 mg/kg i.p. at +3 h,75%
"CC(=O)N[C@@H](CS)C(=O)O [NAC, N-acetylcysteine, reference compound]",survival,[3],100%
same,effect on liver regeneration (in words),[4],no effect and may be detrimental
same,Measured ALT values (mean ± S.D.) Experiment 1,[2]; [5],1745 ± 738 U/L
same,Measured ALT values (mean ± S.D.) Experiment 2,[2]; [5],6620 ± 2142 U/L
same,effect on serum ALT when given late after APAP injury (in words),"[2]; five hours and seven hours after APAP, NAC 150 mg/kg, Compound 3b 120 mg/kg",no longer effective and increases serum ALT levels (is toxic)

# Source: patent US9163044B2, “Carbon monoxide releasing molecules and uses thereof” (Alfama, Inc., priority 2011, dated 2015)
